# Data: patent US9034309B2, “Biocidal polymers” (Wisconsin Alumni Research Foundation, priority 2003, dated 2015)
# Where a SMILES comes first, the peptide text is derived from it.
# Key:
# [1] = system: E. coli JM109; experiment: microbe, parasite or virus in culture; type: cell-based, Escherichia coli; details: for MIC E. coli JM109: Table 3, unit not given (Table 1: μg/mL), median of at least three experiments
# Description: (§1) Minimal Inhibitory Concentration (MIC): Stock solutions of polymers (5.00 μL at 2 mg/mL, prepared as described above), commercial synthetic (Ala^8,3,18)-1-magainin-2-amide (Sigma, dissolved in Millipore water to 1 mg/mL, 10.0 μL, as positive control), or solvent blank (5.00 μL) were diluted into brain-heart infusion (BHI) broth in row A of 96-well sterile assay plates (B-D Falcon 35-3075, Fisher Scientific) and seven serial twofold dilutions were performed to give 50 μL of peptide solution (at double the final assay concentration) in each well. Bacterial strains (Escherichia coli JM1O9, Bacillus subtilis BR151,^24 Staphylococcus aureus 5332 (a clinical MRSA isolate from the Weisblum laboratory strain collection), and Enterococcus faecium A436^25) were grown on 2% bacteriological agar in BHI medium. Cells from these cultures were suspended in BHI broth at a concentration of approximately 10^6 colony-forming units (CFU)/mL, and 50 μL of cell suspension was added to each well to give a total of 100 μL in each well.
# (§2) Plates were then incubated at 37° C. for 6 h. Bacterial growth gives rise to turbidity and light scattering, which was detected by measuring 0D650 using a Molecular Devices Emax microplate reader connected to a Windows computer running SOFTmax v.2.34. OD650 values from two simultaneous experiments were averaged. […] If an even number of experiments was performed and the two median values were not identical, the geometric mean is reported as the MIC.
# [2] = system: B. subtilis BR151; experiment: microbe, parasite or virus in culture; type: cell-based, Bacillus subtilis; details: for MIC B. subtilis BR151: Table 3, unit not given (Table 1: μg/mL), median of at least three experiments
# Description: as §1, §2
# [3] = system: S. aureus 5332 (clinical MRSA isolate); experiment: microbe, parasite or virus in culture; type: cell-based, Staphylococcus aureus; details: for MIC S. aureus 5332: Table 3, unit not given (Table 1: μg/mL), median of at least three experiments
# Description: as §1, §2
# [4] = system: E. faecium A436 (vancomycin-resistant); experiment: microbe, parasite or virus in culture; type: cell-based, Enterococcus faecium; details: for MIC E. faecium A436: Table 3, unit not given (Table 1: μg/mL), median of at least three experiments
# Description: as §1, §2
# [5] = system: E. Coli, B. subtilis, methicillin-resistant S. aureus, vancomycin-resistant E. faecium; experiment: BHI growth inhibition assay, statements over all four strains; type: cell-based; details: BHI broth, up to 50 μg/mL
# Description: as §1
# Plates were then incubated at 37° C. for 6 h. Bacterial growth gives rise to turbidity and light scattering, which was detected by measuring 0D650 using a Molecular Devices Emax microplate reader connected to a Windows computer running SOFTmax v.2.34. OD650 values from two simultaneous experiments were averaged. […]
# [6] = system: E. coli JM109; experiment: Minimal Bactericidal Concentration (MBC); type: cell-based, Escherichia coli; details: Table 2, unit not given; lowest well concentration showing no colonies (>99% killing); plates incubated 4 d
# Description: Minimal Bactericidal Concentration (MBC): To determine cell viability, 10 μL from each of the MIC, 2×MIC, and 4×MIC wells (up to the maximum concentration of […]) was diluted 100-fold. Of this, 100 μL (containing at most 5×10^2 CFU) was plated on 2% bacteriological agar in BHI medium and incubated at 37° C. overnight (for B. subtilis) or for 4 d (for E. coli, because no growth was seen after 10 h; colonies appeared on some plates after extended incubation). The absence of colonies was considered indicative of >99% bacterial killing, and the lowest assay well concentration showing no colonies is reported as the MBC.
SMILES,"MIC ([1]; Escherichia coli, JM109, BHI broth, 37° C., 6 h, tested up to 50 μg/mL, conservative estimates, read-out: Minimum Inhibitory Concentrations (MIC's) E. coli JM109)","MIC E. coli JM109 ([1]; BHI broth, 37° C., 6 h)","MIC ([2]; Bacillus subtilis, BR151, BHI broth, 37° C., 6 h, tested up to 50 μg/mL, conservative estimates, read-out: Minimum Inhibitory Concentrations (MIC's) B. subtilis BR151)","MIC B. subtilis BR151 ([2]; BHI broth, 37° C., 6 h)","MIC ([3]; Staphylococcus aureus, MRSA, BHI broth, 37° C., 6 h, tested up to 50 μg/mL, conservative estimates, read-out: Minimum Inhibitory Concentrations (MIC's) S. aureus 5332)","MIC S. aureus 5332 ([3]; BHI broth, 37° C., 6 h)","MIC ([4]; Enterococcus faecium, BHI broth, 37° C., 6 h, tested up to 50 μg/mL, conservative estimates, read-out: Minimum Inhibitory Concentrations (MIC's) E. faecium A436)","MIC E. faecium A436 ([4]; BHI broth, 37° C., 6 h)",growth inhibition / inhibitory activity (in words) [5],"Minimum Inhibitory Concentrations (MIC's) E. coli JM109 ([1]; JM109, 6 h)","Minimum Inhibitory Concentrations (MIC's) B. subtilis BR151 ([2]; BR151, 6 h)","Minimum Inhibitory Concentrations (MIC's) S. aureus 5332 ([3]; 5332 (clinical isolate, 6 h))","Minimum Inhibitory Concentrations (MIC's) E. faecium A436 ([4]; A436 (vancomycin-resistant, 6 h))",MBC E. coli JM109 [6]
"C=Cc1ccc(CN(C)C)cc1 [(1) (monomer), 4-(dimethylaminomethyl)-styrene]",> 50 µg/mL,> 50 µg/mL,> 50 µg/mL,> 50 µg/mL,> 50 µg/mL,> 50 µg/mL,> 50 µg/mL,> 50 µg/mL,no growth inhibition,,,,,
"CC[C@H](C)[C@H](NC(=O)CN)C(=O)NCC(=O)N[C@@H](CCCCN)C(=O)N[C@@H](Cc1ccccc1)C(=O)N[C@@H](CC(C)C)C(=O)N[C@@H](Cc1c[nH]cn1)C(=O)N[C@@H](C)C(=O)N[C@@H](C)C(=O)N[C@@H](CCCCN)C(=O)N[C@@H](CCCCN)C(=O)N[C@@H](Cc1ccccc1)C(=O)N[C@@H](C)C(=O)N[C@@H](CCCCN)C(=O)N[C@@H](C)C(=O)N[C@@H](Cc1ccccc1)C(=O)N[C@H](C(=O)N[C@@H](C)C(=O)N[C@@H](CCC(=O)O)C(=O)N[C@H](C(=O)N[C@@H](CCSC)C(=O)N[C@@H](CC(N)=O)C(=O)N[C@@H](CO)C(N)=O)[C@@H](C)CC)C(C)C [(Ala^8,3,18)-magainin-2-amide] (H-GIGKFLHAAKKFAKAFVAEIMNS-NH2; N-terminus assumed)",,12.5 µg/mL,,6.3 µg/mL,,12.5 µg/mL,,3.2 µg/mL,,12.5 µg/mL,6.3 µg/mL,12.5 µg/mL,3.2 µg/mL,25
